How the values were obtained:
[1] = tested on: human prostate C4-2B cancer cells; assay: DNA synthesis by [3H]-thymidine incorporation, C4-2B cells; assay type: cell-based
Protocol: (§1) Cells were cultured in MEM supplemented with 10% FCS and antibiotics. Cells were grown to subconfluence and then treated with various hormones or agents as described by Somjen et al. (Somjen et al., 1998). The cells were characterized in terms of expression of mRNAs for estrogen […] by real time PCR, and the results are summarized in Table 1. N87, 320DM and H295R cells expressed mRNAs for both ERs. The ratio of ERα to ERβ was 1:8.5, 1:30 and 1:1.8 in N87, 320DM and H295R cells, respectively. Ovarian A2780 and prostate C4-24 cells expressed mainly mRNA for ERβ, and the ratio of ERβ to ERα was 300:1 and 70:1, respectively. MLS ovarian cells expressed mRNA only for ERβ. The ratio of ERα to ERβ in T47D cells has been reported to be 9:1.
(§2) [^3H]-Thymidine incorporation into DNA was used for the assessment of the various effects (proliferative or inhibitory) of various isoflavones, isoflavone derivatives and known cytotoxic drugs in the above-mentioned cells. Cells were grown until subconfluence using conditions described in Somjen et al. (Somjen et al., 1998) and then treated with various agents for 24 or 48 h as indicated. At the end of incubation, [^3H]-thymidine was added for two hours. Cells were then treated with 10% ice-cold trichloroacetic (TCA) for 5 min and washed twice with 5% TCA and then with cold ethanol. The cellular layer was dissolved in 0.3 ml of 0.3 M NaOH, aliquots were taken for counting radioactivity, and [^3H]-thymidine incorporation into DNA was calculated.

320DM colon xenografts = 320DM colon xenografts in nude mice; assay type: in vivo; settings: 320DM xenografts, 8 ip daily 230 μg, 9 injections within 11 days
From the text: Female CD1 nude mice (8-week old, ˜30 g) were housed and handled with free access to food and water in the animal facility according to the guidelines (1996) of the Institutional Animal Care and Use Committee of the Weizmann Institute of Science, Rehovot, Israel.
Thirty female CD-1 nude mice were inoculated sc with 2×10^6 320DM human colon cancer cells. Two weeks later, 13 mice that developed palpable tumors were divided into two groups: control (5 mice) and treatment (8 mice). Each mouse of the treatment group received daily intra-peritoneal (ip) injections of compound 8 (230 μg in 70 μl of propylene glycol:PBS (20:80)) and the control mice received only propylene glycol:PBS. Each treated mouse received 9 injections within 11 days. The tumors were measured with calipers every other day during 12 days in two dimensions, length (a) and width (b), and tumor area was calculated using the formula: r^2×3.14, where r=a/2+b/2/2. The tumor area on Day 0 was taken as 100%.

[2] = tested on: Human umbilical vascular smooth muscle cells (VSMC); assay: DNA synthesis by [3H]-thymidine incorporation, normal VSMC; assay type: cell-based; settings: compound at 3 μM
Protocol: Human umbilical vascular smooth muscle cells (VSMC) sensitive to estrogen, were grown in culture as described above, and used only at passages 1-3, when expression of smooth muscle actin was clearly demonstrable (Somjen et al. 2000). The ratio of the expression of mRNA for ERα to ERβ was 2.7:1.
as §2

[3] = tested on: T47D mammary cancer cells; assay: DNA synthesis by [3H]-thymidine incorporation, T47D cells; assay type: cell-based, human; settings: Homo sapiens
Protocol: as §1, §2

[4] = tested on: 320DM human colon cancer cells; assay: DNA synthesis by [3H]-thymidine incorporation, 320DM cells; assay type: cell-based
Protocol: as §1
as §2, with “(Somjen et al., 1998) and then treated with various agents for 24 or 48 h as indicated.” left out

[5] = tested on: A2780 ovarian cancer cells; assay: DNA synthesis by [3H]-thymidine incorporation, A2780 cells; assay type: cell-based, human
Protocol: as §1, §2

[6] = tested on: H295R adrenocarcinoma cells; assay: DNA synthesis by [3H]-thymidine incorporation, H295R cells; assay type: cell-based, human
Protocol: as §1, §2

CC(C)(C)OC(=O)NCCCCCCNC(=O)CCCc1oc2cc(O)cc(O)c2c(=O)c1-c1ccc(O)cc1 [Compound 8, 2-[3-[N-[6-(tert-Butoxycarbonyl)-aminohexyl]]-caboxamidopropyl]-5,7,4′-trihydroxyisoflavone]
inhibition of DNA synthesis ([1]; at 30 nM and 300 nM): 10-15%
DNA synthesis, ratio experimental/control (E/C) ([1]; compound at 0.3 μM): 0.75 ± 0.07
effect on growth of tumors (320DM colon xenografts): slowed down the growth of the tumors
DNA synthesis, ratio experimental/control (E/C) [2]: 0.78 ± 0.1
inhibition at 10 µM [3]: 24 to 40%
effect on DNA synthesis / growth ([4]; 30 to 3000 nM): significant growth inhibitory effect
DNA synthesis, ratio experimental/control (E/C) ([4]; compound at 3 μM): 0.2 ± 0.09
effect on DNA synthesis ([5]; at 3 μM): had no effect
DNA synthesis, ratio experimental/control (E/C) ([5]; compound at 3 μM): 1.12 ± 0.19
inhibition at 3 µM ([6]; Homo sapiens, NCI-H295R, at 3 μM, read-out: inhibition of DNA synthesis / growth): 40 to 45%
DNA synthesis, ratio experimental/control (E/C) ([6]; compound at 3 μM): 0.6 ± 0.14
